Laboratory results from patent US9597312B2, “Treatment of cognitive disorders associated with abnormal dendritic spines using PKC activators” (Cognitive Research Enterprises, Inc., priority 2010, dated 2017).

Key:
PKC [1] = conditions: cited from earlier work
PKCε = molecular target: T1, PKCε (Homo sapiens, UniProt Q02156); conditions: cited from earlier work
T1 sequence (Q02156 1-737): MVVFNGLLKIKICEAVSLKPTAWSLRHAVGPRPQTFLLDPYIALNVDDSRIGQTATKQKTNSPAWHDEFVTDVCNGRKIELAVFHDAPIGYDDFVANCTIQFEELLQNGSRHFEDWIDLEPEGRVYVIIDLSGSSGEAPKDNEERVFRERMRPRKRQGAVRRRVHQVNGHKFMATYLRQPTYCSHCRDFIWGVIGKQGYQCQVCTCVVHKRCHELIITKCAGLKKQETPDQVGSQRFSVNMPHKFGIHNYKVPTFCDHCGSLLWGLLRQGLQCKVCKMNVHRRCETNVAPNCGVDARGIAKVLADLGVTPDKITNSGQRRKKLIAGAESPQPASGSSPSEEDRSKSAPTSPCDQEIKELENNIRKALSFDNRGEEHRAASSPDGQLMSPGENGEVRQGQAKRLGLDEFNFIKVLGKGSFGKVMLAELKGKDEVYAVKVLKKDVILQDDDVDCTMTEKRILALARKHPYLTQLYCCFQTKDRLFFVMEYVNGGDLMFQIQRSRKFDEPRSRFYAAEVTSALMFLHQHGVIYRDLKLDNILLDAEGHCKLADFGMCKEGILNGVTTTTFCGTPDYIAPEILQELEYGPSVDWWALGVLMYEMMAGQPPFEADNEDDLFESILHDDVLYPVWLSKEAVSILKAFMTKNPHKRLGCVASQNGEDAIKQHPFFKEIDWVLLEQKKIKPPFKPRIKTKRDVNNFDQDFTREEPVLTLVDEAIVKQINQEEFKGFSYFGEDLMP

[2] = system: squamous cell carcinoma and melanoma; conditions: used topically; cited from earlier work
protein kinase C = conditions: specifically the (−)-enantiomer; read-out: EC50 (potency); cited from earlier work
FMR1 mice = assay: Spatial water maze in Fragile X (FMR1) mice; assay type: in vivo; conditions: 20 μg/m^2 tail i.v., 2 doses/week for 13 weeks, vs FMR1 with vehicle p<0.001
Text: Two types of mice (male, The Jackson Laboratories, ME, USA; 9-10 per group) were used in the study: FVB.129P2-Fmrl^tmlCgr/J (FMR1) and FVB.129P2-Pde6b^+ Tyr^c-ch/AntJ (as the control groups).
(§1) Non-treated groups received the same volume of vehicle at the same frequency of administration as the treated groups.
The first training of spatial water maze task began on the 10th day after the last dose. Mice were trained for 8 days (2 trials/day) to find a hidden platform, centered in one of the quadrants and submerged about 2 cm below the water surface. At the start of all trials, mice were placed individually in the water facing the maze wall, using different starting positions each trial, and allowed to swim until they found the platform, where they remained for 20 s, before being returned to their home cages. […] The swim path was recorded with a video-tracking system, which computed latency to the platform, swim distance, and percentage of time spent in the quadrants. After the training trials, a probe trial (a quadrant test or retention trial) was performed with the platform removed to assess memory retention for its location by the distance the mouse moved in the quadrants. The video-tracking system tracked the animal's movements in each quadrant during a period of one minute. […]

synaptophysin = assay: Synaptophysin immunohistochemistry in hippocampus of aged rats; assay type: in vivo
Procedure: Under anesthesia (choral hydrate; Sigma-Aldrich; 400 mg/kg body weight, i.p.), rats were perfused through the heart with PBS by gravity to wash out the blood and then lightly fixed with 150 ml of 4% paraformaldehyde in PBS at room temperature, instead of a cold fixative, because hypothermia can reduce the number of dendritic spines. Brains were removed and postfixed for 10 min. Thereafter, hippocampi were isolated from the right brain hemispheres, and dorsal hippocampi were sectioned with a vibratome at 400 μm for DiI staining and immunohistochemistry.
Hippocampal slices at 400 μm thickness were further immersed in the fixative (4% paraformaldehyde in PBS) for 30 min at room temperature and then sectioned at 35 μm thickness by using a vibratome. Sections were then processed for immunohistochemistry as described in Hongpaisan et al., J Neurosci., 2004, 24:10878-10887. […]
All data were quantified by using the ImageJ program. The appearance of spinophilin and synaptophysin profiles in a 63-μm×63-μm image taken from the superficial part of the stratum radiatum were analyzed with the photographic negative after background subtraction. The total number of spinophilin and synaptophysin granules were then counted by using ImageJ. […] HuC/D immunostaining was quantified by measuring fluorescence intensity in the proximal dendrite portion of each individual CA1 pyramidal neuron. […]

hippocampal CA1 neurons = assay: DiI staining and confocal microscopy of dendritic spines of hippocampal CA1 neurons in Fragile X mice; assay type: in vivo; conditions: Fragile X transgenic mice
Procedure: as §1
The tips of glass electrodes, prepared as used for electrophysiology, were immersed in 5% (wt/vol) 1, 1′-dioctadecyl-3,3,3′,3′-tetramathyl-indocarbocyanineperchlorate (DiI, Molecular Probes/Invitrogen) in dichloromethane (Sigma-Aldrich) and air-dried at room temperature for 30 min. The tips of DiI-coated electrodes were inserted, broken, and left in the strata oriens of the CA1 area of hippocampal sections at […] thickness. After maintenance in PBS at 4° C. overnight to allow DiI to diffuse in the plasma membrane of the CA1 neurons, hippocampal sections were then resectioned to 35 μm thickness and mounted on glass slides, using PBS as the mounting medium. Dendritic spines stained with DiI in the strata radiatum were collected using a Zeiss Axiovert 200M microscope equipped with 510 confocal scanning system at 568 nm/>510 nm (excitation/emission). A stack of confocal images (taken every 0.4 μm) was collected to obtain all dendritic spines of an individual dendritic shaft. During analysis, a stack of images was retrieved with the ImageJ program (National Institutes of Health). Individual spines identified on one image were also verified on adjacent stacked images to approximate the three-dimensional structure of this spine. Those spines, which had head diameters more than three times larger than the diameter of their necks (FIGS. 1 d and e), were identified as mushroom spines. Approximately four to six stacked image sets were obtained from each animal. All image sets were pooled and coded; therefore, images were identified with unknown animal number and unknown treatment (double-blind protocol).
(§2) The mice were then sacrificed and hippocampal sections were removed and treated as described in Example 2.

hippocampal CA1 area = assay: Immunohistochemistry of synaptic markers (GAP-43, neurogranin, synaptophysin) in hippocampal CA1 area of Fragile X mice; assay type: in vivo
Procedure: as §1
Hippocampal slices at 400 μm thickness were further immersed in the fixative (4% paraformaldehyde in PBS) for 30 min at room temperature and then sectioned at 35 μm thickness by using a vibratome. Sections were then processed for immunohistochemistry as described in Hongpaisan et al., J Neurosci., 2004, 24:10878-10887. Tissue sections were incubated free-floating with primary antibodies against spinophilin (polyclonal IgG; 1:100; Upstate/Millipore), synaptophysin (monoclonal IgG; 1:2,000; Chemicon/Millipore), and/or HuC/D (monoclonal IgG; 1:100; Molecular Probes) at room temperature overnight. For a polyclonal antibody, tissue sections were incubated with Alexa Fluor 568 goat anti-rabbit IgG (1:200; Molecular Probes) for 3 h at room temperature. For monoclonal antibodies, sections were treated with a biotinylated secondary antibody (1:20; Vector Laboratories) for 3 h at room temperature and then with streptavidin conjugated with Alexa Fluor 488 (1:100; Molecular Probes) for 3 h at room temperature. Sections were mounted with […] mounting medium with DAPI to counterstain nuclei (Vector Laboratories) and imaged with the confocal microscope (512 pixels×512 pixels).
All data were quantified by using the ImageJ program. The appearance of spinophilin and synaptophysin profiles in a 63-μm×63-μm image taken from the superficial part of the stratum radiatum were analyzed with the photographic negative after background subtraction. The total number of spinophilin and synaptophysin granules were then counted by using ImageJ. Synaptophysin intensity was defined in the whole area of a 63-μm×63-μm image. HuC/D immunostaining was quantified by measuring fluorescence intensity in the proximal dendrite portion of each individual CA1 pyramidal neuron. The naive control data were set at 100%, and all other experiment data were defined as the percentage of their control.
as §2

[3] = system: mushroom-shaped dendritic spines; conditions: rats; cited from earlier work
[4] = system: ischemia-induced deficits; conditions: postischemic/hypoxic treatment; cited from earlier work
Aβ(1-42) = conditions: transgenic mice with human AD genes; cited from earlier work
[5] = system: murine leukemias and solid tumors; conditions: cited from earlier work
PKC [6] = conditions: K562 cells; cited from earlier work
[7] = system: cyclin dependent kinase 2 (Cdk2); conditions: at 5 ng/ml; cited from earlier work
NCI 60 cell line screen = conditions: cited from earlier work

CCCCCCCC(=O)O[C@H]1/C(=C/C(=O)OC)C[C@H]2C[C@H](CO)OC(=O)C[C@H](O)C[C@@H]3CCC[C@H](C[C@@H]4CCO[C@H](/C=C/C(C)(C)[C@]1(O)O2)O4)O3 [Analog 1]
affinity for PKC (in words) (PKC [1]): high affinity for PKC

CCCCCC1CC1CC1CC1CCCCCCCC(=O)O (centres unmarked) [DCP-LA, 2-[(2-pentylcyclopropyl)methyl]cyclopropaneoctanoic acid]
concentration of maximal effect on PKCε activation (PKCε): 100 nM

C/C=C(/C)C(=O)O[C@H]1C(C)=C[C@]23C(=O)[C@@H](C=C(CO)[C@@H](O)[C@]12O)[C@H]1[C@@H](C[C@H]3C)C1(C)C [Ingenol-3-angelate]
antitumor activity [2]: possesses antitumor activity

CCCCCCCCc1ccc2c3c(c[nH]c13)C[C@@H](CO)NC(=O)[C@H](C(C)C)N2C [octylindolactam V, Octylindolactam V]
EC50 (protein kinase C): 29 nM

CCC/C=C/C=C/C(=O)O[C@H]1/C(=C/C(=O)OC)C[C@H]2C[C@H]([C@@H](C)O)OC(=O)C[C@H](O)C[C@@H]3C[C@H](OC(C)=O)C(C)(C)[C@](O)(C[C@@H]4C/C(=C/C(=O)OC)C[C@H](/C=C/C(C)(C)[C@]1(O)O2)O4)O3 [Bryostatin 1, bryostatin-1]
learning performance in water maze (FIG. 1) (FMR1 mice): significantly improved the learning performance | presence of synaptophysin (FIG. 3) (synaptophysin): increased | filopodia number per 100 μm of dendritic shaft (FIG. 6) (hippocampal CA1 neurons): improved the transformation of filopodia to dendritic spines | mushroom-shaped and total dendritic spines per 100 μm of dendritic shaft (FIG. 5) (hippocampal CA1 neurons): prevented the loss | number and density of dendritic mushroom spines (FIG. 4) (hippocampal CA1 neurons): restored the number and density of dendritic mushroom spines to wild-type levels | postsynaptic membrane density, neurogranin; number of synapses (FIG. 8) (hippocampal CA1 area; Fragile X transgenic mice): can be restored | presynaptic membrane density, GAP-43 (FIG. 7) (hippocampal CA1 area; Fragile X transgenic mice): restored presynaptic membrane density in Fragile X transgenic mice to wild type levels | presynaptic vesicle concentration, synaptophysin fluorescence intensity (FIG. 9) (hippocampal CA1 area; Fragile X transgenic mice): significantly restored, and even enhanced | number of presynaptic axonal boutons, synaptophysin grains (FIG. 9) (hippocampal CA1 area; across experimental conditions): No difference | number of mushroom-shaped dendritic spines [3]: memory-specific increase | ischemia-induced deficits in synaptogenesis, neurotrophic activity, and spatial learning and memory [4]: effectively rescued | Aβ(1-42) levels in the brains (Aβ(1-42)): reduce

C=C(C)[C@]12C[C@@H](COC(=O)c3ccccc3)[C@@]34OC5(O[C@@H]1[C@@H]3C1O[C@]1(CO)[C@@H](O)[C@@]1(O)[C@H]4[C@@H](C(C)CCCCCC[C@@H]5O)C(C)[C@@H]1OC(=O)c1ccccc1)O2 (some centres unmarked) [Gnidimacrin]
concentrations of potent antitumor activity [5]: 0.1 to 1 nM | concentration at which it acts as a PKC activator (PKC [6]): ~3 nM | inhibition of Cdk2 [7]: 100%

CC1=CC[C@H](C)C(C)(C)[C@@H]1/C=C/C(C)=C/CC[C@@]1(CO)[C@H](CCCO)/C(=C(/C)C=O)CC[C@]1(C)O [Iripallidal]
GI50 (concentration required to inhibit growth by 50%) (NCI 60 cell line screen): micromolar to nanomolar range
